Results reported in a melting point compilation (Tetko et al.; mined from patent text by program, amines drawn as free bases though some values may be those of a salt).

| SMILES | melting point [°C] |
| --- | --- |
| NS(=O)(=O)c1cc(C(=O)O)cc(N2CCCC2=O)c1Oc1ccccc1 | 282 to 285 |
| Ic1cccc2cc3ccccc3cc12 | 152 to 154 |
| CN(C(=O)N1CC(C)(c2ccccc2)C(c2ccc(Cl)cc2)=N1)c1ccc(Cl)cc1 (centres undefined) | 132 to 135 |
| CC12CCC3c4ccc(OCc5ccccc5)c([N+](=O)[O-])c4CCC3C1CCC2=O (centres undefined) | 198 to 199 |
| Cc1cc2c(c3c1NC(=O)CC3(C)C)OC(CO)C2 (centres undefined) | 165 to 166 |
| CS(=O)(=O)c1ccc(-c2ccc(C3C(CCC(O)c4ccc(F)cc4)C(=O)N3c3ccc(F)cc3)cc2)cc1 (centres undefined) | 111 |
| C[C@H](NC(=O)CCn1cc(C2=C(c3cn(C)c4ccccc34)C(=O)NC2=O)c2ccccc21)C(=O)NCC(=O)N[C@@H](CCCCN)C(N)=O | 158 to 160 |
| CON=C1CC(=NOC)c2ccccc2-c2ccccc21 | 130 |
| OCC1(c2ccc(Cl)cc2)CCC1 | 53 to 54 |
| O=C(O)c1cc(-n2c(-c3ccc(Cl)c(Cl)c3)cc3c2CCCC3)ccc1O | 210 to 211 |
| C#CCOc1cc(-n2c(=O)nc(N(C)C)n(C)c2=O)c(F)cc1Cl | 61 to 65 |
| CC(C)(C)c1nn(-c2c(Cl)cc(C(F)(F)F)cc2Cl)c(Br)c1[N+](=O)[O-] | 105 to 108 |
| N#CC1=C(C2CCC2)Nc2n[nH]cc2C1c1ccccc1Cl (centres undefined) | 188 |
| CSc1nc(N)nc(N2CCc3ccccc3CC2)c1C#N | 164 to 168 |
| CC1(C)CC=C(Nc2ccccc2Cl)C(=O)C1 | 150 to 152 |
| Cc1nnc(CO)n1-c1ccc(Cl)cc1C(=O)c1ccccc1 | 138 to 142 |
| N#CCC(=O)Nc1cc(N)ccc1[N+](=O)[O-] | 218 to 220 |
| Cc1cc(C)c2c(c1)S(=O)(=O)NCN2 | 160 to 165 |
| COC(=O)CCSc1cc(C(C)(C)C)c(O)c(C(C)(C)C)c1 | 63.5 to 65.5 |
| Cc1cn(C)c2c1N(C(=O)CN1CCN(C)CC1)c1ccccc1NC2=O | 205 to 207 |
| CC(C)(C)c1cc(C(=O)c2cccs2)cc2c1OCC2(C)C | 103 to 105 |
| O=C1C(=O)c2ccccc2C2=C1SCC1(CCN(CC(O)c3ccccc3)CC1)O2 (centres undefined) | 193 to 195 |

| SMILES | melting point [°C] |
| --- | --- |
| COc1cc2c(cc1F)C(c1ccccc1Cl)=NC1=C(C)NNC1=N2 | 217 to 218 |
| Cc1ccc(C(F)(F)c2ccc(C3CCCN4CCS(=O)(=O)N=C34)cc2)cc1 (centres undefined) | 190 to 191 |
| O=C(C=Cc1ccccc1Sc1ccc(Cl)cc1)N1CCCC1=O | 144 to 147 |
| O=C(O)C1=COc2ccccc2O1 | 183 to 184 |
| Cc1csc2nc3cccc(C(F)(F)F)c3c(=O)n12 | 182 to 186 |
| OCC1OC(n2cnc3c(NN4CCCC4)nc(I)nc32)C(O)C1O (centres undefined) | 216 to 217 |
| O=C(O)c1cn2c3c(cc(F)cc3c1=O)CCC2C(F)(F)F (centres undefined) | 295 to 297 |
| C=C[C@@H]1CCC(=O)N1C(=O)[C@@H](C)Sc1cc(C(C)(C)C)c(O)c(C(C)(C)C)c1 | 105 to 106 |
| O=C1CN2Cc3ccccc3-c3cccc1c32 | 199 to 202 |
| O=C(C1CC2(CCN1)OCCO2)N1CCCC1 (centres undefined) | 72.5 to 74.5 |
| CN1[C@@H](c2cccc(Cl)c2)c2ccccc2S1(=O)=O | 164 |
| COC(=O)C(=O)NS(=O)(=O)Cc1ccccc1 | 117 to 122 |
| CC(C)Oc1ccc(-c2nn(Cc3oc4cccc(F)c4c(=O)c3-c3cccc(F)c3)c3ncnc(N)c23)cc1F | 156 to 159 |
| CC1=CC(C)(N)NC=C1 (centres undefined) | 79.5 to 81 |
| O=S(=O)(O)COc1ccc(Cl)cc1Br | > 315 |
| COC(=O)c1cc(C(=O)N[C@@H](Cc2ccccc2)[C@H]2CN(C3(c4cccc(C(F)(F)F)c4)CC3)C(=O)O2)n2c1CN(S(C)(=O)=O)CC2 | 104 |
| Nc1cccc(S(=O)(=O)NCc2ccncc2)c1 | 139 |
| Nc1ncc(-c2ccccc2)nc1Sc1ccc(F)cc1 | 161 to 164 |
| CCN(CC)Cc1nc2cc(OC)c(OC)cc2c(-c2ccc(OC)c(OC)c2)c1C(C)O (centres undefined) | 144 to 145 |
| N#Cc1cc(C(=O)NNC(=O)c2occc2-c2ccccc2Oc2ccccc2)ccc1O | 134 to 135 |
| CSc1sc(-c2cncs2)c2c1C(=O)CC(C)(C)C2 | 138 to 140 |
| Clc1ccc2nc(-c3ccsc3)c(I)n2n1 | 203 to 206 |

Results, then the compound that gave them:

| melting point [°C] | SMILES |
| --- | --- |
| 101 to 103 | COc1ccc(-n2nc(C(O)c3ccccc3)cc2-c2ccc(C)cc2)cc1 (centres undefined) |
| 113 to 115 | CCOC(=O)c1cc(S(=O)(=O)N2c3ccccc3-c3ccccc3C2C)ccc1OCC (centres undefined) |
| 130 to 131 | CCOC(=O)CC(=O)c1cc(F)c(N=[N+]=[N-])nc1Nc1ccc(F)cc1F |
| 131 to 138 | O=C(/C=C/c1ccc(O)cc1)CC(=O)/C=C/c1ccc(O)cc1Cl |
| 227 to 231 | NC(C(=O)O)c1ccc(C(=O)O)cc1SCCc1ccccc1 (centres undefined) |
| 248 to 250 | COc1ccc2c(c1)c(-c1[nH]c3ncccc3c1F)cn2C |
| 97 to 99 | COC(=O)[C@H](CCCCNC(=O)OCc1ccccc1)n1c2ccccc2c2ccccc21 |
| 265 to 266 | CCCCCC(=O)Nc1ccc2nnc(C(=O)OCC)c(O)c2c1 |
| 122 | CCOC(=O)C1=C(COCCN)NC=C(C(=O)OC)C1c1cccc(C(F)(F)F)c1Cl (centres undefined) |
| 207 | C#CCN(c1ccc(C(=O)NC(CCc2nnn[nH]2)C(=O)O)cc1)C(C)c1cc2c(=O)[nH]c(C)nc2cc1C (centres undefined) |
| 96.3 | CCCCCCCc1ccc(-c2ncc(C#N)cn2)cc1 |
| 156 to 157 | O=[N+]([O-])c1ccc(-c2nc3cc(OCc4ccccc4)ccc3s2)c(Cl)c1 |
| 159 to 160 | Cc1nc2ccccc2c(=O)n1CCO |
| 137 to 141 | CN1Cc2ccccc2C(=O)c2cc(CC(=O)NO)ccc21 |
| 245 to 247 | COc1cc(OC)c2c(=O)[nH]c(-c3ccc(O)cc3)cc2c1 |
| 197 to 200 | CCCn1nc2c(N)nc3ccccc3c2c1CC(C)(C)OCCS(C)(=O)=O |
| 235 | Cc1c(C(=O)c2ccc(O)cc2)oc2ccc([N+](=O)[O-])cc12 |
| 132 to 134 | OCCCCCNc1nccc2cc3c(cc12)OCO3 |
| 79 | CCC(=O)c1cc(Cl)c(C)cc1OC |
| 60 to 100 | Cc1cc(Cl)ccc1N=CNN=C(c1ccc(Cl)cc1)c1ccc(OS(C)(=O)=O)cc1 |
| 182 to 184 | CCc1oc2ccccc2c1C(=O)c1ccc(OC(C)C(=O)O)cc1 (centres undefined) |
| 141 | COC(=O)[C@H](Cc1ccc(N)cc1)NC(C)=O |
| 158 to 159 | COc1cc(Cc2cc3cccc(-c4cccc(C(=O)NCCC#N)c4)c3s2)ccc1F |
| 220 to 222 | Cc1c(NC(=O)c2ccc(-c3ccc(C(F)(F)F)cc3)cc2)ccc2cc(CN3CCCC3)cnc12 |
| 101 to 102 | CC(C)c1cc(OCCOCc2ccccc2)cc2c1C(=O)N(CCl)S2(=O)=O |
| 48 to 50 | Cn1ccc(C(=O)c2ccc(Cl)cc2)c1 |
| 211 to 213 | O=C(Nc1ccc(Oc2ccc(N(CC(=O)N3CCN(Cc4ccc5c(c4)OCO5)CC3)C(=O)C(F)(F)F)cc2)nc1)c1ccc(Cl)c(Cl)c1 |
| 194 to 195 | CCOc1cc2nc(S(=O)c3ccccc3-c3ccccn3)[nH]c2cc1OCC (centres undefined) |

| melting point [°C] | SMILES |
| --- | --- |
| 121 to 123 | CCN1C[C@@H](O)[C@H](Oc2ccc(C(C)=O)cc2OC)C1 (relative stereo) |
| 117 to 118 | Cc1cc(CCCCCOc2c(C)cc(-c3cn(C)nn3)cc2C)on1 |
| 112 to 115 | O=S(=O)(CCNc1ccccc1)NCCCOc1cccc(CN2CCCCC2)c1 |
| 190 to 191 | CCOC(=O)C1=C(CO)NC(CO)=C(C(=O)OCC)C1c1ccccc1Cl |
| 168 to 170 | CCN(CC)c1ccc(C2(c3ccc(N(C)C)cc3N(C)C)OC(=O)c3ccccc32)cc1 (centres undefined) |
| 189 to 190 | NC(=O)c1cccc(-c2cccc3sc(Cc4ccc(F)c(F)c4)cc23)c1 |
| 109 to 110 | CCOC(=O)c1c(O)c2ccc(Cl)cc2c(=O)n1C |
| 61 | CCC(=O)c1ccc(OCCCCCCCc2cc(C)no2)cc1 |
| 62 | CCCCOc1ccc(C=C2C(=O)C3(C)CCC2C3(C)C)cc1 (centres undefined) |
| 130 to 131 | Cc1cccc(-c2n[nH]cc2-c2ccc(F)c(-c3cn(CCN(C)C)cn3)c2)n1 |
| 133 to 135 | COC(=O)CC(NC(=O)C(CSC(C)=O)Cc1ccccc1)c1ccc2ccccc2c1 (centres undefined) |
| 251 to 253 | CCOC(=O)c1ncn2c1c(S)nc1ccccc12 |
| 129 to 130 | COc1ccc(CCl)cc1OCc1nc(-c2ccccc2)oc1C |
| 146 to 148 | c1cc(CN2CCCCC2)cc(OCCCNc2nc3ccccc3[nH]2)c1 |
| 147 to 151 | Cc1ccc(C(=O)Nc2ccc(CN3CCOCC3)c(C(F)(F)F)c2)cc1-c1ccc2cnncc2c1 |
| 178 | CNC(=O)Nc1ccc(Oc2ccc3sncc3c2)cc1 |
| 103 to 104 | COc1ccc(F)cc1C(C)(C)CC(O)(CN1CCSc2ccccc21)C(F)(F)F (centres undefined) |
| 129 | O=c1[nH]c2ccccc2n1CC1CCN(CC(O)COc2ccc(Cl)cc2)C1 (centres undefined) |
| 115 to 119 | CCCCc1ccc(NCCS(=O)(=O)NCCCOc2cccc(CN3CCCCC3)c2)cc1 |
| 162 to 164 | CCCCOc1ccc(C(=O)N[C@@H]2CCc3cccc(C4CCN(C)CC4)c3C2)cc1 |
| 282 to 284 | O=[N+]([O-])c1cccc(Nc2nccc(-c3ccncc3)n2)c1 |
| 109 to 110 | COc1ccc(OC(=O)C2CCCc3ccc([N+](=O)[O-])cc32)cc1 (centres undefined) |
| 171 to 173 | CC1(C)OC(=S)Nc2ccc(-c3ccccc3F)cc21 |
| 35 to 45 | CCCn1nc(C(C)C)c(C(=O)OCc2cccc(C(=O)c3ccccc3)c2)c1Cc1ccc(-c2ccccc2S(=O)(=O)NC(C)(C)C)c(F)c1 |
| 145 to 146 | COc1ccc(-n2nc3c(cc2=O)CCSc2sc(C)cc2-3)cc1 |
| 229 to 231 | NC(=O)c1nnn(Cc2ccc(C(=O)c3ccc(Cl)cc3)cc2)c1N |
| 106 | CCCCCCCCCCCCCCCCCCNC(=O)c1ccc(OC(C)=O)cc1 |
